What was measured:
[1] = system: sLucAβ; assay: Effect of small molecule aggregation inhibitors on secreted reporter in inducible cell lines; assay type: cell-based; settings: 1 μM compound, 24 hours
Procedure: (§1) 293T FlipInTrex (Invitrogen) cells. 293T FlipInTrex cells were grown as described above, using Tet Approved Fetal Bovine Serum (Clontech) and supplementing the medium with Zeocin 100 μg/mL (Invitrogen) and Blasticidin 15 μg/ml (InVivoGen, San Diego, USA). Zeocin selects for the lacZeo inserted into FRT sites in the genome, and Blasticidin selects for Tet repressor expression. For the generation of isogenic stable doxycycline inducible cell lines, cells were co-transfected overnight using Lipofectamine 2000 with the pcDNA5/FRT/TO vectors containing the fusion proteins-IRES-(NLS)3EGFP cassettes, and the pOGG-Flp recombinase plasmid (Invitrogen) at a ratio pcDNA/pOGG of 1:9. On day 2, cells were replated at −25% confluency, and selection for recombined clones was started by supplementing the medium with 75 μg/ml Hygromycin (InvivoGen) and Zeocin 100 μg/mL. Medium was exchanged every 2-3 days until colonies appeared. Cells were adapted to cell culture media containing 5% Tet approved Fetal Bovine Serum (Clontech), and 5% Serum Replacement 3 (Sigma). […] Expression of the chimeric reporter proteins was induced by addition of 0.75 μg/mL Doxycycline (Sigma-Aldrich) to cell culture medium, and tested for luciferase activity and western-blot (see below).
Effect of Small Molecule Inhibitors of Aβ42 aggregation in inducible cell lines. Congo Red, Rosmarinic acid, Quercetin, scyllo-inositol, and (−)-Epigallocatechin gallate (EGCG) were purchased from Sigma-Aldrich, and dissolved in DMSO. Cells were plated in 96-well plates and allowed to attach overnight. Cell medium without antibiotics was prepared containing 2× of the final compound concentration (1 μM) and 2× of final doxycycline concentration (0.75 μgr/ml) and diluted to 1× with media in the well. Control cells were treated with medium containing the same volume of DMSO. 8 wells were treated per condition. After 24 hours, 4 wells were harvested for luciferase assays, and 4 wells were used for cell survival assays.
sLuc Metridia activity. sLuc Metridia activity was measured using the same plates and instrument described above. Metridia reagent was prepared as described in (G. A. Stepanyuk et al., 2008, Protein Expr Purif 61, 142). Coelenterazine, native (Biosynth AG, Staad, Switzerland) was brought up at 1.43 mM in Methanol acidified with 1N HCl and diluted to 7.2 μM in 20 mM Tris-HCl 0.3M NaCl pH7.5 (Sigma-Aldrich). 20 μl of cell medium were transferred to white 96-well plates, 50 μl of reagent was injected, and every well was read for 5 s followed by a 3s delay. sLuciferase activity is measured in Relative Luminiscence Units (RLU).
(§2) Cell survival was measured using Cell titer Blue kit (Promega). […] After 1 hour incubation at 37° C., fluorescence was recorded in a Spectramax M5 plate reader, using excitation at 560 nm and emission at 590 nm in Relative Fluorescence Units (RFU).
(§3) Effect of small molecule inhibitors of Aβ42 in the inducible cell lines. The ratio luciferase activity/cell survival (Rsmall molecule) was calculated as shown in eq. […] Four technical replicates were measured per molecule for each test. Standard deviation was calculated using eq. […]
(§4) Comparing the Fold inhibition ratio of a given molecule in the Aβ42 and SH3 sensors allows the identification of molecules that change the ratios by mechanisms non-specific to aggregation such as toxicity or interference with luciferase activity. […] Standard errors were calculated using Error propagation theory. […]

[2] = target: T1, synthetic Aβ42 (Homo sapiens, UniProt P05067); assay: Inhibition of in vitro aggregation of synthetic Aβ42 by small molecules (ThT fluorescence); assay type: biochemical; settings: 1 μM compound, 25 μM Aβ42, 1 day at 30° C.
T1 construct: a fragment comprising residues 672-713 of Aβ (“Aβ42”); purchased Bachem
T1 sequence (P05067 672-713): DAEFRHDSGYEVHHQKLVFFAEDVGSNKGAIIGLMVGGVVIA
Procedure: (§5) Aβ42, Aβ40, Aβ42F20E and Aβ42E22G peptides (Bachem, Torrance, USA) were disaggregated using Hexafluoro-2-propanol (HFIP, Sigma-Aldrich) following the protocol described elsewhere (C. Goldsbury, et al., 2005, J Mol Biol 352, 282), and aliquoted into low protein binding tubes (Eppendorf).
Effect of small molecule inhibitors of Aβ42 aggregation. 2 mM Aβ42 stock solutions in DMSO) were sonicated for 5 minutes, and diluted to final 25 μM concentration in PBS (Gibco). Small molecules were added to final 1 μM concentration, the final DMSO concentration in all samples and control was kept equal. Samples were incubated for 1 day at 30° C., and tested for Aβ42 aggregation using Thioflaving T (Tht, Sigma-Aldrich) binding monitored by fluorescence (excitation 450 nm/emission 485 nm). Tht was prepared at 5 μM in 20 mM Glycine pH=8 buffer. 10 μl of sample were plated in triplicates in clear bottom non-binding black plates (Corning), and 100 μl of Tht were added. After 5 minutes of incubation at room temperatures, fluorescence was read. Data were corrected by Tht alone fluorescence, and normalized by the Tht intensity of the control solution, Aβ42+DMSO. Ratios and standard deviations were calculated as described in the Data Analysis section.

[3] = system: cLucAβ; assay: Effect of small molecule aggregation inhibitors on cytoplasmic reporter in inducible cell lines; assay type: cell-based; settings: 1 μM compound, 24 hours
Procedure: as §1
Effect of Small Molecule Inhibitors of Aβ42 aggregation in inducible cell lines. Congo Red, Rosmarinic acid, Quercetin, scyllo-inositol, and (−)-Epigallocatechin gallate (EGCG) were purchased from Sigma-Aldrich, and dissolved in DMSO. Cells were plated in 96-well plates and allowed to attach overnight. […]
cLuciferase Firefly activity. […] 20 μl of cellular lysate were transferred to white 96-well plates (Corning), 100 μl of luciferase reagent were injected, and every well was read for 5 s followed by 3 s delay to minimize cross-talk between wells using a Modulus Microplate Multimode Reader (Turner Biosystems Inc., Sunnyvale, Calif., USA). cLuciferase activity is measured in Relative Luminiscence Units (RLU).
as §2, §3, §4

[4] = system: cytoplasmic and secreted reporters; assay: Thapsigargin effect on activity of cytoplasmic and secreted reporters in inducible 293FlpInTrex cell lines; assay type: cell-based; settings: 24 hours, different concentrations
Procedure: FIG. 16: Changes in proteostasis pathways 96 hours postinduction (A) relative mRNA levels of cells expressing cLucAβ or sLucAβ versus cLucSH3 or sLucSH3 measured by qPCR; (B) Protein expression analysed by Western blot. (C) Activity of cytoplasmic and secreted reporters normalized by cell survival in the presence of different concentrations of Thapsigargin compared to solvent alone. Data are means±s.d. Experiments were carried out using doxycyline inducible 293FlpInTrex cell lines expressing the aggregation sensors.
293T FlipInTrex (Invitrogen) cells. 293T FlipInTrex cells were grown as described above, using Tet Approved Fetal Bovine Serum (Clontech) and supplementing the medium with Zeocin 100 μg/mL (Invitrogen) and Blasticidin 15 μg/ml (InVivoGen, San Diego, USA). Zeocin selects for the lacZeo inserted into FRT sites in the genome, and Blasticidin selects for Tet repressor expression. […]
as §2

[5] = In vitro Aβ42 aggregation kinetics by Thioflavin T fluorescence; assay type: physicochemical; settings: 25 μM in PBS, 30° C., ThT
Procedure: as §5
In vitro Aβ42 kinetic experiment. 25 μM Aβ42 in PBS was incubated at 30° C. Aliquots were withdrawn at different time points, and Tht binding was measured in triplicates.

Row | Molecule | effect on sLucAβ activity compared to solvent alone [1] | effect on cLucAβ activity compared to solvent alone [3] | also measured
1 | Nc1c(/N=N/c2ccc(-c3ccc(/N=N/c4cc(S(=O)(=O)O)c5ccccc5c4N)cc3)cc2)cc(S(=O)(=O)O)c2ccccc12 [Congo Red] | did not increase the activity | – | inhibition of in vitro aggregation of synthetic Aβ42 by ThT fluorescence [2]: potently inhibited
2 | O=c1c(O)c(-c2ccc(O)c(O)c2)oc2cc(O)cc(O)c12 [Quercetin] | significantly increased activity | no effect | –
3 | O=C(/C=C/c1ccc(O)c(O)c1)O[C@H](Cc1ccc(O)c(O)c1)C(=O)O [Rosmarinic acid] | significantly increased activity | no effect | –
4 | O[C@H]1[C@H](O)[C@@H](O)[C@H](O)[C@@H](O)[C@@H]1O [Scilloinositol, scyllo-inositol] | significantly increased activity | no effect | –
5 | C/C=C(/C)C(=O)O[C@H]1C(C)=C2[C@H]([C@@H]1OC(=O)CCCCCCC)[C@@](C)(OC(C)=O)C[C@H](OC(=O)CCC)[C@@]1(O)[C@H]2OC(=O)[C@@]1(C)O [TG, Thapsigargin] | – | – | effect on aggregation sensor activity normalized by cell survival [4]: increase of only sAβ activity in a TG dose-dependent manner
6 | (−)-Epigallocatechin gallate [EGCG] | significantly increased activity | no effect | –
7 | synthetic Aβ peptide: synthetic Aβ42 peptide (Bachem) used for in vitro aggregation | – | – | exponential phase of in vitro aggregation [5]: 6 to 24 h; plateau of in vitro aggregation [5]: 24 to 72 h

— US20120141983A1, “Quantitative Aggregation Sensors” (priority 2010, published 2012)
